Measured values: patent US6495571B1, “Pyridine compounds, use and preparation thereof” (Southern Research Institute, priority 1999, dated 2002)
Like-named read-outs stand apart in the source and are kept apart here.

How the values were obtained:
[1] = test system: P388/L-PAM (melphalan-resistant) leukemia; details: for activity in this tumor model (in words): mouse, in vivo
SK-MEL-28 melanoma = assay: In vivo antitumor activity, sc SK-MEL-28 xenograft; parameters: species or system Athymic mice (Ncr-nu); details: IP 90 mg/kg/dose, Days 8-12
[2] = test system: UISO-BCA-1 human mammary tumor; assay: In vivo antitumor activity, sc UISO-BCA-1 xenograft; parameters: species or system Athymic mice (Ncr-nu); details: IP 90 mg/kg/dose, Days 16-20
HT29 human colon tumor = assay: In vivo antitumor activity, sc HT29 xenograft; parameters: species or system Athymic mice (Ncr-nu)
CAKI-1 human renal tumor = assay: In vivo antitumor activity, sc CAKI-1 xenograft; parameters: species or system Athymic mice (Ncr-nu)
[3] = test system: P388/CPA (cyclophosphamide-resistant) leukemia; assay type: in vivo, CD2F1 female mice; details: for 50-DAY SURV./TOTAL / % ILS / APPROX. NET LOG10 CHANGE IN TUMOR BURDEN AT END OF Rx: Q1D × 5 (1)
[4] = test system: ZR-75-1 human mammary tumor; assay: In vivo antitumor activity, sc ZR-75-1 xenograft; parameters: species or system Athymic mice (Ncr-nu)
[5] = test system: NCI-H460 nonsmall cell lung tumor; assay: In vivo antitumor activity, sc NCI-H460 xenograft; parameters: species or system Athymic mice (Ncr-nu); details: IP 90 mg/kg/dose, Days 6-10
[6] = test system: human MX-1 mammary tumor (ic, 10^6 cells); assay: In vivo antitumor activity, i.c.-implanted MX-1 xenograft; details: for Median % ILS (dying mice only): Days 1-5
[7] = test system: NCI-H82 small cell lung tumor; assay: In vivo antitumor activity, sc NCI-H82 xenograft; parameters: species or system Athymic mice (Ncr-nu)
[8] = test system: human MX-1 mammary tumor (sc, 30-40 mg fragments); assay: In vivo antitumor activity, s.c.-implanted MX-1 xenograft; parameters: species or system Athymic mice (Ncr-nu)
SF-295 CNS tumor = assay: In vivo antitumor activity, sc SF-295 xenograft; parameters: species or system Athymic mice (Ncr-nu); details: IP 90 mg/kg/dose, Days 9-13
MCF7 human mammary tumor = assay: In vivo antitumor activity, sc MCF7 xenograft; parameters: species or system Athymic mice (Ncr-nu)
OVCAR-5 ovarian tumor = assay: In vivo antitumor activity, sc OVCAR-5 xenograft; parameters: species or system Athymic mice (Ncr-nu); details: IP 90 mg/kg/dose, Days 12-16
U251 human CNS tumor = assay: In vivo antitumor activity, sc U251 xenograft; parameters: species or system Athymic mice (Ncr-nu)
[9] = test system: P388/BCNU (carmustine-resistant) leukemia; assay: Antitumor activity against IP-implanted P388/BCNU leukemia
[10] = one hour infusion for 5 consecutive days, patients; cited from earlier work
Cytotoxicity in vitro = assay type: cell-based
[11] = dogs; cited from earlier work
[12] = rats; cited from earlier work
[13] = 14C-penclomedine, tumor-bearing rats; cited from earlier work
[14] = IP 60.0 mg/kg/dose, Q1D × 5 (1)
[15] = IP 90.0 mg/kg/dose, Q1D × 5 (1)
[16] = IP 135.0 mg/kg/dose, Q1D × 5 (1)
[17] = highest nontoxic doses evaluated, versus DM-PEN
[18] = highest nontoxic doses evaluated, versus PEN
[19] = oral (gavage) 135 mg/kg/dose, Days 13-17
[20] = optimal doses (LD10 or less), schedule QD1-5, administered LP.

COc1nc(C(Cl)(Cl)Cl)c(Cl)c(OC(C)=O)c1Cl [DM-A-PEN]
50-DAY SURV./TOTAL (P388/0 murine leukemia; [14]): 0/6 | % ILS (P388/0 murine leukemia; [14]): +72% | APPROX. NET LOG10 CHANGE IN TUMOR BURDEN AT END OF Rx (P388/0 murine leukemia; [14]): −3.1 | 50-DAY SURV./TOTAL (P388/0 murine leukemia; [15]): 0/6 | % ILS (P388/0 murine leukemia; [15]): +95% | APPROX. NET LOG10 CHANGE IN TUMOR BURDEN AT END OF Rx (P388/0 murine leukemia; [15]): −5.0 | 50-DAY SURV./TOTAL (P388/0 murine leukemia; [16]): 0/6 | % ILS (P388/0 murine leukemia; [16]): +150% | APPROX. NET LOG10 CHANGE IN TUMOR BURDEN AT END OF Rx (P388/0 murine leukemia; [16]): ca −6.8 | Lethality of the dosage (LD mark beside % ILS) (P388/0 murine leukemia; [16]): LD33 | more active than DM-PEN by log cell kill (P388/0 murine leukemia; [17]): 1.9 log cell kill | more active than PEN by log cell kill (P388/0 murine leukemia; [18]): 0.4 log cell kill | 50-DAY SURV./TOTAL [1, 14]: 0/6 | % ILS [1, 14]: +14% | APPROX. NET LOG10 CHANGE IN TUMOR BURDEN AT END OF Rx [1, 14]: +1.2 | 50-DAY SURV./TOTAL [1, 15]: 0/6 | % ILS [1, 15]: +14% | APPROX. NET LOG10 CHANGE IN TUMOR BURDEN AT END OF Rx [1, 15]: +1.2 | 50-DAY SURV./TOTAL [1, 16]: 0/6 | % ILS [1, 16]: +35% | APPROX. NET LOG10 CHANGE IN TUMOR BURDEN AT END OF Rx [1, 16]: −0.8 | Lethality of the dosage (LD mark beside % ILS) [1, 16]: LD17 | MEDIAN DAY OF DEATH [1, 16]: 19.8 | more active than PEN or DM-PEN by log cell kill ([1]; highest nontoxic doses evaluated, versus PEN or DM-PEN): 0.2-0.3 log cell kill | activity in this tumor model (in words) [1]: none of the three showed significant activity | T-C (SK-MEL-28 melanoma): 0.7 days | Tumor-Free-Surv/Total (SK-MEL-28 melanoma): 0/5 | T-C [2]: -2.4 days | Tumor-Free-Surv/Total [2]: 0/5 | T-C (HT29 human colon tumor; IP 90 mg/kg/dose, Days 14-18): 5.8 days | Tumor-Free-Surv/Total (HT29 human colon tumor; IP 90 mg/kg/dose, Days 14-18): 0/5 | activity (in words) (HT29 human colon tumor; s.c.-implanted): moderate to modest activity | T-C (CAKI-1 human renal tumor; IP 90 mg/kg/dose, Days 19-23): 8.4 days | Tumor-Free-Surv/Total (CAKI-1 human renal tumor; IP 90 mg/kg/dose, Days 19-23): 0/5 | activity (in words) (CAKI-1 human renal tumor; s.c.-implanted): moderate to modest activity | 50-DAY SURV./TOTAL ([3]; IP 60.0 mg/kg/dose): 0/6 | % ILS ([3]; IP 60.0 mg/kg/dose): +54% | APPROX. NET LOG10 CHANGE IN TUMOR BURDEN AT END OF Rx ([3]; IP 60.0 mg/kg/dose): −1.1 | 50-DAY SURV./TOTAL ([3]; IP 90.0 mg/kg/dose): 0/6 | % ILS ([3]; IP 90.0 mg/kg/dose): +86% | APPROX. NET LOG10 CHANGE IN TUMOR BURDEN AT END OF Rx ([3]; IP 90.0 mg/kg/dose): −3.1 | 50-DAY SURV./TOTAL ([3]; IP 135.0 mg/kg/dose): 0/6 | APPROX. NET LOG10 CHANGE IN TUMOR BURDEN AT END OF Rx ([3]; IP 135.0 mg/kg/dose): −5.7 | more active than DM-PEN by log cell kill [3, 17]: 4.6 log cell kill | more active than PEN by log cell kill [3, 18]: 7.4 log cell kill | Tumor-Free-Surv/Total ([4]; IP 60 mg/kg/dose, Days 10-14): 0/5 | Tumor-Free-Surv/Total ([4]; IP 90 mg/kg/dose, Days 8-12): 0/5 | activity (in words) ([4]; s.c.-implanted): moderate to modest activity | T-C [5]: -0.6 days | Tumor-Free-Surv/Total [5]: 0/5 | Median % ILS (dying mice only) ([6]; IP 60 mg/kg/dose): +60% | Median % ILS (dying mice only) ([6]; oral (gavage) 135 mg/kg/dose): +88% | T-C ([7]; IP 60 mg/kg/dose, Days 13-17): 7.2 days | Tumor-Free-Surv/Total ([7]; IP 60 mg/kg/dose, Days 13-17): 0/5 | activity (in words) ([7]; s.c.-implanted): moderate to modest activity | T-C ([8]; IP 60 mg/kg/dose, Days 14-18): >38.3 days | Tumor-Free-Surv/Total ([8]; IP 60 mg/kg/dose, Days 14-18): 4/5 | T-C ([8]; IP 60 mg/kg/dose, Days 15-19): >37.2 days | Tumor-Free-Surv/Total ([8]; IP 60 mg/kg/dose, Days 15-19): 3/5 | T-C ([8]; IP 90 mg/kg/dose, Days 12-16): >41.0 days | Tumor-Free-Surv/Total ([8]; IP 90 mg/kg/dose, Days 12-16): 5/5 | IP dosage marked (LD50) ([8]; IP, Days 15-19, sc MX-1 bearing mice): 60 (LD50) mg/kg/dose | T-C [8, 19]: >38.5 days | Tumor-Free-Surv/Total [8, 19]: 5/5 | T-C (SF-295 CNS tumor): 0.7 days | Tumor-Free-Surv/Total (SF-295 CNS tumor): 0/5 | T-C (MCF7 human mammary tumor; IP 60 mg/kg/dose, Days 14-18): 7.1 days | Tumor-Free-Surv/Total (MCF7 human mammary tumor; IP 60 mg/kg/dose, Days 14-18): 0/5 | activity (in words) (MCF7 human mammary tumor; s.c.-implanted): moderate to modest activity | T-C (OVCAR-5 ovarian tumor): 4.0 days | Tumor-Free-Surv/Total (OVCAR-5 ovarian tumor): 0/5 | Tumor-Free-Surv/Total (U251 human CNS tumor; IP 90 mg/kg/dose, Days 19-23): 0/5 | activity (in words) (U251 human CNS tumor; s.c.-implanted): moderate to modest activity | 50-DAY SURV./TOTAL [9, 14]: 1/6 | % ILS [9, 14]: +44% | APPROX. NET LOG10 CHANGE IN TUMOR BURDEN AT END OF Rx [9, 14]: 0 | MEDIAN DAY OF DEATH [9, 14]: 13.0 | 50-DAY SURV./TOTAL [9, 15]: 0/6 | % ILS [9, 15]: +77% | APPROX. NET LOG10 CHANGE IN TUMOR BURDEN AT END OF Rx [9, 15]: −2.3 | 50-DAY SURV./TOTAL [9, 16]: 0/6 | APPROX. NET LOG10 CHANGE IN TUMOR BURDEN AT END OF Rx [9, 16]: −4.1 | Lethality of the dosage (LD mark beside % ILS) [9, 16]: LD17 | more active than DM-PEN by log cell kill [9, 17]: 1.5 log cell kill | more active than PEN by log cell kill [9, 18]: 3.5 log cell kill

COc1nc(C(Cl)(Cl)Cl)c(Cl)c(OC)c1Cl [PEN, 3,5-dichloro-2,4-dimethoxy-6-(trichloromethyl)pyridine]
50-DAY SURV./TOTAL (P388/0 murine leukemia; [14]): 0/6 | 50-DAY SURV./TOTAL (P388/0 murine leukemia; [15]): 0/6 | APPROX. NET LOG10 CHANGE IN TUMOR BURDEN AT END OF Rx (P388/0 murine leukemia; [15]): −0.8 | 50-DAY SURV./TOTAL (P388/0 murine leukemia; [16]): 0/6 | APPROX. NET LOG10 CHANGE IN TUMOR BURDEN AT END OF Rx (P388/0 murine leukemia; [16]): −4.8 | neurotoxicity (dysmetria, ataxia, vertigo) [10]: principal dose limiting toxicity | 50-DAY SURV./TOTAL [1, 14]: 0/6 | 50-DAY SURV./TOTAL [1, 15]: 0/6 | 50-DAY SURV./TOTAL [1, 16]: 0/6 | activity in this tumor model (in words) [1]: none of the three showed significant activity | activity as cytotoxic agents in vitro (Cytotoxicity in vitro): inactive | 50-DAY SURV./TOTAL ([3]; IP 60.0 mg/kg/dose): 0/6 | % ILS ([3]; IP 60.0 mg/kg/dose): −5% | 50-DAY SURV./TOTAL ([3]; IP 90.0 mg/kg/dose): 0/6 | % ILS ([3]; IP 90.0 mg/kg/dose): −5% | 50-DAY SURV./TOTAL ([3]; IP 135.0 mg/kg/dose): 0/6 | % ILS ([3]; IP 135.0 mg/kg/dose): −5% | cures ([6]; Table 2 conditions): not | Median % ILS (based on dying mice only) [6, 20]: 88% | Survivors [6, 20]: 0/5 | plasma penclomedine levels associated with severe emesis and seizures [11]: above 30 μM | 50-DAY SURV./TOTAL [9, 14]: 0/6 | % ILS [9, 14]: −6% | 50-DAY SURV./TOTAL [9, 15]: 0/6 | % ILS [9, 15]: 0% | MEDIAN DAY OF DEATH [9, 15]: 9.0 | 50-DAY SURV./TOTAL [9, 16]: 0/6 | % ILS [9, 16]: +27% | neurotoxicity (muscle tremors, incoordination, convulsions, reduced activity) [12]: Dose related neurotoxicity | radioactive species in the brain [13]: predominant radioactive species in the brain
